From US10562909B2, “Fused quadracyclic compounds, compositions and uses thereof” (Tabomedex Biosciences, LLC, priority 2016, dated 2020)

Target: MAPKAPK2 (Homo sapiens, UniProt P49137)
Experiment: MK2 Enzymatic Assay
Format: biochemical
Conditions: 0.5 nM MAPKAPK2, 3 μM ATP, 2 μM Ser/Thr4 peptide, 23° C., values given as concentration bins
Summary of the method: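 Percent phosphorylation was derived from coumarin and fluorescein emissions relative to 0% and 100% phospho-peptide controls, read after a 120 min development step. Reactions used 2× stocks of 1 nM kinase, 4 μM peptide and 6 μM ATP; enzyme and peptide sat 20 min before a 120 min ATP reaction.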

Chain of MAPKAPK2 (P49137 whole entry, species assumed): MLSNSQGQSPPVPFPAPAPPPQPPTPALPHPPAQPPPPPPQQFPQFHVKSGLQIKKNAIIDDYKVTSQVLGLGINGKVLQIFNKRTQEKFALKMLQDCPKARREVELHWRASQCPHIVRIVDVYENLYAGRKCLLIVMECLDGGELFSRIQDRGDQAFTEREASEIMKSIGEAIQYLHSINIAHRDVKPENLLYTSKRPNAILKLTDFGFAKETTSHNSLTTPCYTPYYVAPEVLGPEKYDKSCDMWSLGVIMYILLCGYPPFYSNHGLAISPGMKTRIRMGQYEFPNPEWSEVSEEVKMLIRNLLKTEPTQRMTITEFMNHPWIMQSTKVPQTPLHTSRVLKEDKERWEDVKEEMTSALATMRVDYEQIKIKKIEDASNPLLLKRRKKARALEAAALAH

| IC50 [nM] | SMILES |
| --- | --- |
| 50 to 100 | C[C@@H]1CN(c2ccc3c(c2)Cn2cc(-c4ccc(C#N)cc4)cc2-c2nnnn2-3)C[C@H](C)N1 [Compound 242, 4-(7-(cis-3,5-dimethylpiperazin-1-yl)-9H-benzo[e]pyrrolo[1,2-a]tetrazolo[5,1-c][1,4]diazepin-12-yl)benzonitrile] |
| 100 to 200 | N#Cc1ccc(-c2cc3n(c2)Cc2cc(N4CC5(CCNCC5)C4)ccc2-n2nnnc2-3)cc1 [Compound 245, 4-(7-(2,7-diazaspiro[3.5]nonan-2-yl)-9H-benzo[e]pyrrolo[1,2-a]tetrazolo[5,1-c][1,4]diazepin-12-yl)benzonitrile] |
| 50 to 100 | CNCC1CN(c2ccc3c(c2)Cn2cc(-c4ccc(C#N)cc4)cc2-c2ncnn2-3)C1 [Compound 250, 4-(7-(3-((methylamino)methyl)azetidin-1-yl)-9H-benzo[e]pyrrolo[1,2-a][1,2,4]triazolo[5,1-c] [1,4]diazepin-12-yl)benzonitrile] |
| < 50 | CN1CC2(CCN(c3ccc4c(c3)Cn3cc(-c5ccc(C#N)cc5)cc3-c3ncnn3-4)C2)C1 [Compound 253, 4-(7-(2-methyl-2,6-diazaspiro[3.4]octan-6-yl)-9H-benzo[e]pyrrolo[1,2-a][1,2,4]triazolo[5,1-c][1,4]diazepin-12-yl)benzonitrile] |
| 50 to 100 | CN(C)C[C@@H]1CCN(c2ccc3c(c2)Cn2cc(-c4ccc(C#N)cc4)cc2-c2ncnn2-3)C1 [Compound 254, (S)-4-(7-(3-((dimethylamino)methyl)pyrrolidin-1-yl)-9H-benzo[e]pyrrolo[1,2-a][1,2,4]triazolo[5,1-c][1,4]diazepin-12-yl)benzonitrile] |
| < 50 | CN(C)C[C@H]1CCN(c2ccc3c(c2)Cn2cc(-c4ccc(C#N)cc4)cc2-c2ncnn2-3)C1 [Compound 255, (R)-4-(7-(3-((dimethylamino)methyl)pyrrolidin-1-yl)-9H-benzo[e]pyrrolo[1,2-a][1,2,4]riazolo[5,1-c][1,4]diazepin-12-yl)benzonitrile] |
| < 50 | N#Cc1ccc(-c2cc3n(c2)Cc2cc(N4CCC5(CNC5)C4)ccc2-n2ncnc2-3)cc1 [Compound 256, 4-(7-(2,6-diazaspiro[3.4]octan-6-yl)-9H-benzo[e]pyrrolo[1,2-a][1,2,4]triazolo[5,1-c][1,4]diazepin-12-yl)benzonitrile] |
| 50 to 100 | N#Cc1ccc(-c2cc3n(c2)Cc2cc(N4CC5(CCNC5)C4)ccc2-n2ncnc2-3)cc1 [Compound 258, 4-(7-(2,6-diazaspiro[3.4]octan-2-yl)-9H-benzo[e]pyrrolo[1,2-a][1,2,4]triazolo[5,1-c][1,4]diazepin-12-yl)benzonitrile] |
| < 50 | CN(C)[C@@H]1CCN(c2ccc3c(c2)Cn2cc(-c4ccc(C#N)cc4)cc2-c2ncnn2-3)C1 [Compound 259, (R)-4-(7-(3-(dimethylamino)pyrrolidin-1-yl)-9H-benzo[e]pyrrolo[1,2-a][1,2,4]triazolo[5,1-c][1,4]diazepin-12-yl)benzonitrile] |
| < 50 | CN(C)[C@H]1CCN(c2ccc3c(c2)Cn2cc(-c4ccc(C#N)cc4)cc2-c2ncnn2-3)C1 [Compound 260, (S)-4-(7-(3-(dimethylamino)pyrrolidin-1-yl)-9H-benzo[e]pyrrolo[1,2-a][1,2,4]triazolo[5,1-c][1,4]diazepin-12-yl)benzonitrile] |
| < 50 | CNC[C@@H]1CCN(c2ccc3c(c2)Cn2cc(-c4ccc(C#N)cc4)cc2-c2ncnn2-3)C1 [Compound 262, (S)-4-(7-(3-((methylamino)methyl)pyrrolidin-1-yl)-9H-benzo[e]pyrrolo[1,2-a][1,2,4]triazolo[5,1-c][1,4]diazepin-12-yl)benzonitrile] |
| 100 to 200 | CNC[C@H]1CCN(c2ccc3c(c2)Cn2cc(-c4ccc(C#N)cc4)cc2-c2ncnn2-3)C1 [Compound 263, (R)-4-(7-(3-((methylamino)methyl)pyrrolidin-1-yl)-9H-benzo[e]pyrrolo[1,2-a][1,2,4]triazolo[5,1-c][1,4]diazepin-12-yl)benzonitrile] |
| < 50 | CNCc1cnc2n1-c1ccc(N3CC[C@@H](N(C)C)C3)cc1Cn1cc(-c3ccc(C#N)cc3)cc1-2 [Compound 276, 4-(7-((R)-3-(dimethylamino)pyrrolidin-1-yl)-3-((methylamino)methyl)-9H-benzo[e]imidazo[2,1-c]pyrrolo[1,2-a][1,4]diazepin-12-yl)benzonitrile] |
| 50 to 100 | CN(C)[C@@H]1CCN(c2ccc3c(c2)Cn2cc(-c4ccc(C#N)cc4)cc2-c2ncc(CN)n2-3)C1 [Compound 277, 4-(3-(aminomethyl)-7-((R)-3-(dimethylamino)pyrrolidin-1-yl)-9H-benzo[e]imidazo[2,1-c]pyrrolo[1,2-a][1,4]diazepin-12-yl)benzonitrile] |
| < 50 | COCc1cnc2n1-c1ccc(N3CC[C@@H](N(C)C)C3)cc1Cn1cc(-c3ccc(C#N)cc3)cc1-2 [Compound 278, 4-(7-((R)-3-(dimethylamino)pyrrolidin-1-yl)-3-(methoxymethyl)-9H-benzo[e]imidazo[2,1-c]pyrrolo[1,2-a][1,4]diazepin-12-yl)benzonitrile] |
| < 50 | CNCC1CN(c2ccc3c(n2)Cn2cc(-c4ccc(C#N)cc4)cc2-c2nccn2-3)C1 [Compound 295, 4-(7-(3-((methylamino)methyl)azetidin-1-yl)-9H-imidazo[2,1-c]pyrido[3,2-e]pyrrolo[1,2-a] [1,4]diazepin-12-yl)benzonitrile] |
| 50 to 100 | CN1CC2(CCN(c3ccc4c(n3)Cn3cc(-c5ccc(C#N)cc5)cc3-c3nccn3-4)C2)C1 [Compound 297, 4-(7-(2-methyl-2,6-diazaspiro[3.4]octan-6-yl)-9H-imidazo[2,1-c]pyrido[3,2-e]pyrrolo[1,2-a] [1,4]diazepin-12-yl)benzonitrile] |
| < 50 | CN(C)C[C@H]1CN(c2ccc3c(n2)Cn2cc(-c4ccc(C#N)cc4)cc2-c2nccn2-3)C[C@H]1O [Compound 298, 4-(7-((3S,4S)-3-((dimethylamino)methyl)-4-hydroxypyrrolidin-1-yl)-9H-imidazo[2,1-c]pyrido[3,2-e]pyrrolo[1,2-a][1,4]diazepin-12-yl)benzonitrile] |
| < 50 | CN(C)C[C@@H]1CN(c2ccc3c(n2)Cn2cc(-c4ccc(C#N)cc4)cc2-c2nccn2-3)C[C@@H]1O [Compound 299, 4-(7-((3R,4R)-3-((dimethylamino)methyl)-4-hydroxypyrrolidin-1-yl)-9H-imidazo[2,1-c]pyrido[3,2-e]pyrrolo[1,2-a][1,4]diazepin-12-yl)benzonitrile] |
| < 50 | CN(C)[C@@H]1CN(c2ccc3c(n2)Cn2cc(-c4ccc(C#N)cc4)cc2-c2nccn2-3)C[C@H]1O [Compound 300, 4-(7-((3R,4R)-3-(dimethylamino)-4-hydroxypyrrolidin-1-yl)-9H-imidazo[2,1-c]pyrido[3,2-e]pyrrolo[1,2-a][1,4]diazepin-12-yl)benzonitrile] |
| 100 to 200 | CN(C)[C@H]1CN(c2ccc3c(n2)Cn2cc(-c4ccc(C#N)cc4)cc2-c2nccn2-3)C[C@@H]1O [Compound 301, 4-(7-((3S,4S)-3-(dimethylamino)-4-hydroxypyrrolidin-1-yl)-9H-imidazo[2,1-c]pyrido[3,2-e]pyrrolo[1,2-a][1,4]diazepin-12-yl)benzonitrile] |
| 50 to 100 | CN(C)[C@H]1CN(c2ccc3c(n2)Cn2cc(-c4ccc(C#N)cc4)cc2-c2nccn2-3)C[C@H]1O [Compound 302, 4-(7-((3S,4R)-3-(dimethylamino)-4-hydroxypyrrolidin-1-yl)-9H-imidazo[2,1-c]pyrido[3,2-e]pyrrolo[1,2-a][1,4]diazepin-12-yl)benzonitrile] |
| 50 to 100 | CN(C)[C@@H]1CN(c2ccc3c(n2)Cn2cc(-c4ccc(C#N)cc4)cc2-c2nccn2-3)C[C@@H]1O [Compound 303, 4-(7-((3R,4S)-3-(dimethylamino)-4-hydroxypyrrolidin-1-yl)-9H-imidazo[2,1-c]pyrido[3,2-e]pyrrolo[1,2-a][1,4]diazepin-12-yl)benzonitrile] |
| < 50 | CN(C)C[C@H]1CN(c2ccc3c(n2)Cn2cc(-c4ccc(C#N)cc4)cc2-c2nccn2-3)C[C@@H]1O [Compound 306, 4-(7-((3S,4R)-3-((dimethylamino)methyl)-4-hydroxypyrrolidin-1-yl)-9H-imidazo[2,1-c]pyrido[3,2-e]pyrrolo[1,2-a][1,4]diazepin-12-yl)benzonitrile] |
| < 50 | CN(C)C[C@@H]1CN(c2ccc3c(n2)Cn2cc(-c4ccc(C#N)cc4)cc2-c2nccn2-3)C[C@H]1O [Compound 307, 4-(7-((3R,4S)-3-((dimethylamino)methyl)-4-hydroxypyrrolidin-1-yl)-9H-imidazo[2,1-c]pyrido[3,2-e]pyrrolo[1,2-a][1,4]diazepin-12-yl)benzonitrile] |
| < 50 | N#Cc1ccc(-c2cc3n(c2)Cc2nc(N4CC[C@@H](CN5CCC(O)CC5)C4)ccc2-n2ccnc2-3)cc1 [Compound 308, (S)-4-(7-(3-((4-hydroxypiperidin-1-yl)methyl)pyrrolidin-1-yl)-9H-imidazo[2,1-c]pyrido[3,2-e]pyrrolo[1,2-a][1,4]diazepin-12-yl)benzonitrile] |
| < 50 | N#Cc1ccc(-c2cc3n(c2)Cc2nc(N4CCC5(CNC5)C4)ccc2-n2ccnc2-3)cc1 [Compound 310, 4-(7-(2,6-diazaspiro[3.4]octan-6-yl)-9H-imidazo[2,1-c]pyrido[3,2-e]pyrrolo[1,2-a][1,4]diazepin-12-yl)benzonitrile] |
| 100 to 200 | CNCC1CN(c2cc3c(cn2)-n2cnnc2-c2cc(-c4ccc(C#N)cc4)cn2C3)C1 [Compound 315, 4-(7-(3-((methylamino)methyl)azetidin-1-yl)-9H-pyrido[3,4-e]pyrrolo[1,2-a][1,2,4]triazolo[3,4-c][1,4]diazepin-12-yl)benzonitrile] |
| 100 to 200 | CN(C)C[C@@H]1CCN(c2cc3c(cn2)-n2cnnc2-c2cc(-c4ccc(C#N)cc4)cn2C3)C1 [Compound 317, (S)-4-(7-(3-((dimethylamino)methyl)pyrrolidin-1-yl)-9H-pyrido[3,4-e]pyrrolo[1,2-a][1,2,4]triazolo[3,4-c][1,4]diazepin-12-yl)benzonitrile] |
